Assays:
[1] = system: mTORC1 over mTORC2; assay: mTORC1 selectivity over mTORC2 at 24 hrs (Western blot based pS6K1 and pAKT assay); type: cell-based; details: 24 hrs
Procedure: Western Blot Based pS6K1 and pAKT Assay at 24 and 48 Hour Timepoints
1. Seed six well plate with 500,000 PC3 cells per well and incubate for 20˜24 hour.
2. Add compounds into the cell plate. Incubate for 24 to 48 hours.
4. Plate is placed on ice and the media is removed via aspiration. The wells are washed with 1 mL of 1× PBS and then fully aspirated.
5. 110 μL of 1% Triton Lysis Buffer is added and each well is scraped vigorously.
6. Cell homogenates are transferred to 1.5 mL eppendorf tubes on ice and spun down at 4° C. for 10 minutes at 10,000 rpm.
9. The membranes were washed 3× with TBS-T with a 5 minute incubation between each wash then incubated with secondary antibody (LiCor IRDye 800 Donkey Anti Rabbit) for at least 30 minutes.
10. The membranes were washed 3× with TBS-T with a 5 minute incubation between each wash.
11. The gels were then incubated for 5 minutes with PBS at room temperature then imaged using a Li-Cor.
“N/A” stands for “not assayed.”

[2] = system: pS6K1 (p-p70 S6 Kinase (Thr389)) in MCF-7 cells; assay: AlphaLISA Ultra pS6K1 Assay; type: cell-based; details: Homo sapiens, 1.5 h; MCF7 cells, 90 min
Procedure: AlphaLISA Ultra pS6K1 Assay
1. Seed MCF-7 cells in Corning 3701 plate and incubate for 20˜24 hour. 12,000˜16,000 cells will be seeded in 36 μL medium per well.
2. Change the culture medium with fresh medium and incubate for another 2 hours.
3. Add 12 μL (4×) compounds into the cell plate by HAMILTON. Final DMSO concentration is 0.5%. Incubate for 90 minutes.
4. Aspirate […] by HAMILTON, 10 μL rest per well.
5. Add 10 μL 2× lysis buffer using HAMILTON; total volume in wells is 20 μL. Allow cells to shake for 30 min. Cover plate by plastic foil and store plate at −80° C. up to analysis.
6. Thaw cell lysate at RT and transfer 10 μL lysate to assay plate (Optiplate-384).
7. Add 5 μL acceptor beads into assay plate and incubation for 2 hours
8. Add 5 μL donor beads and incubation for 2 hours
9. Count the plate by EnSpire Multimode Plate Reader

Row | Structure (SMILES) | IC50 [2] | mTORC1 selective @ 24 hrs [1]
1 | CO[C@@H]1C[C@H](C[C@@H](C)[C@@H]2CC(=O)[C@H](C)/C=C(\C)[C@@H](O)[C@@H](OC)C(=O)[C@H](C)C[C@H](C)/C=C/C=C/C=C(\C)[C@@H](OCC3COCCOCCOCCO3)C[C@@H]3CC[C@@H](C)[C@@](O)(O3)C(=O)C(=O)N3CCCC[C@H]3C(=O)O2)CC[C@H]1O (stereo partly drawn) [I-112, (28E,30E,32E,33E,36R,37S,38R,39R,41S,43S,45S,46S,48R,49R,58R)-48, 58-dihydroxy-46-[(1R)-2-[(1S,3R,4R)-4-hydroxy-3-methoxy-cyclohexyl]-1-methyl-ethyl]-49-methoxy-36, 37,38,39,50,51-hexamethyl-45-(1,4,7,10-tetraoxacyclododec-2-ylmethoxy)-72, 73-dioxa-59-azatricyclohexatriaconta-28,30,32(50),33(51)-tetraene-52, 53,54,55,56-pentone] | 0.1 to 1 nM | YES
2 | CO[C@@H]1CC(C[C@@H](C)C2CC(=O)[C@H](C)/C=C(\C)[C@@H](O)[C@@H](OC)C(=O)[C@H](C)C[C@H](C)/C=C/C=C/C=C(\C)[C@H](OCCOCC(F)(F)F)C[C@@H]3CC[C@@H](C)[C@@](O)(O3)C(=O)C(=O)N3CCCC[C@H]3C(=O)O2)CC[C@H]1OCCO (stereo partly drawn) [I-70, (21E,23E,25E,26E,33R,34S,35R,36R,38S,40S,42S,43R,44R,45R,54R)-44, 54-dihydroxy-43-[(1R)-2-[(1S,3R,4R)-4-(2-hydroxyethoxy)-3-methoxy-cyclohexyl]-1-methyl-ethyl]-45-methoxy-33, 34,35,36,46,47-hexamethyl-42-[2-(2,2,2-trifluoroethoxy)ethoxy]-65, 66-dioxa-56-azatricyclohexatriaconta-21,23,25(46),26(47)-tetraene-48,49,50,51,52-pentone] | 1 to 10 nM | YES
3 | CO[C@@H]1C[C@H](C[C@@H](C)[C@@H]2CC(=O)[C@H](C)/C=C(\C)[C@@H](O)[C@@H](OC)C(=O)[C@H](C)C[C@H](C)/C=C/C=C/C=C(\C)[C@H](OCC3COCCOCCOCCO3)C[C@@H]3CC[C@@H](C)[C@@](O)(O3)C(=O)C(=O)N3CCCC[C@H]3C(=O)O2)CC[C@H]1O (stereo partly drawn) [I-111, (28E,30E,32E,33E,36R,37S,38R,39R,41S,43S,45R,46S,48R,49R,58R)-48, 58-dihydroxy-46-[(1R)-2-[(1S,3R,4R)-4-hydroxy-3-methoxy-cyclohexyl]-1-methyl-ethyl]-49-methoxy-36, 37,38,39,50,51-hexamethyl-45-(1,4,7,10-tetraoxacyclododec-2-ylmethoxy)-72,73-dioxa-59-azatricyclohexatriaconta-28, 30,32(50),33(51)-tetraene-52,53,54,55,56-pentone] | 1 to 10 nM | YES
4 | CO[C@@H]1CC(C[C@@H](C)C2CC(=O)[C@H](C)/C=C(\C)[C@@H](O)[C@@H](OC)C(=O)[C@H](C)C[C@H](C)/C=C/C=C/C=C(\C)C(OCCOCC(F)(F)F)C[C@@H]3CC[C@@H](C)[C@@](O)(O3)C(=O)C(=O)N3CCCC[C@H]3C(=O)O2)CC[C@H]1OCCO (stereo partly drawn) [I-77, (21E,23E,25E,26E,33R,34S,35R,36R,38S,40S,43S,44R,45R,54R)-44, 54-dihydroxy-43-[(1R)-2-[(1S,3R,4R)-4-(2-hydroxyethoxy)-3-methoxy-cyclohexyl]-1-methyl-ethyl]-45-methoxy-33, 34,35,36,46,47-hexamethyl-42-[2-(2,2,2-trifluoroethoxy)ethoxy]-65,66-dioxa-56-azatricyclohexatriaconta-21, 23,25(46),26(47)-tetraene-48,49,50,51,52-pentone] | < 0.1 nM | YES
5 | CO[C@@H]1C[C@H](C[C@@H](C)[C@@H]2CC(=O)[C@H](C)/C=C(\C)[C@@H](O)[C@@H](OC)C(=O)[C@H](C)C[C@H](C)/C=C/C=C/C=C(\C)[C@H](OCCOCCOCCOCCO)C[C@@H]3CC[C@@H](C)[C@@](O)(O3)C(=O)C(=O)N3CCCC[C@H]3C(=O)O2)CC[C@H]1OCCO [I-114, (21E,23E,25E,26E,38R,39S,40R,41R,43S,45S,47R,48S,49R,50R,59R)-49, 59-dihydroxy-47-[2-[2-[2-(2-hydroxyethoxy)ethoxy]ethoxy]ethoxy]-48-[(1R)-2-[(1S,3R, 4R)-4-(2-hydroxyethoxy)-3-methoxy-cyclohexyl]-1-methyl-ethyl]-50-methoxy-38,39,40,41,51, 52-hexamethyl-70,71-dioxa-60-azatricyclohexatriaconta-21,23,25(51),26(52)-tetraene-53, 54,55,56,57-pentone] | 1 to 10 nM | YES

Continued, in another order:

Row | IC50 [2] | Structure (SMILES) | mTORC1 selective @ 24 hrs [1]
6 | 0.1 to 1 nM | CO[C@@H]1C[C@H](C[C@@H](C)[C@@H]2CC(=O)[C@H](C)/C=C(\C)[C@@H](O)[C@@H](OC)C(=O)[C@H](C)C[C@H](C)/C=C/C=C/C=C(\C)[C@H](OCC(CO)CO)C[C@@H]3CC[C@@H](C)[C@@](O)(O3)C(=O)C(=O)N3CCCC[C@H]3C(=O)O2)CC[C@H]1O [I-4] | YES
7 | 1 to 10 nM | CO[C@@H]1C[C@H](C[C@@H](C)[C@@H]2CC(=O)[C@H](C)/C=C(\C)[C@@H](O)[C@@H](OC)C(=O)[C@H](C)C[C@H](C)/C=C/C=C/C=C(\C)[C@H](OCCOCCOCCO)C[C@@H]3CC[C@@H](C)[C@@](O)(O3)C(=O)C(=O)N3CCCC[C@H]3C(=O)O2)CC[C@H]1OCCO [I-109, (21E,23E,25E,26E,36R,37S,38R,39R,41S,43S,45R,46S,47R,48R,57R)-47, 57-dihydroxy-45-[2-[2-(2-hydroxyethoxy)ethoxy]ethoxy]-46-[(1R)-2-[(1S,3R, 4R)-4-(2-hydroxyethoxy)-3-methoxy-cyclohexyl]-1-methyl-ethyl]-48-methoxy-36,37,38,39,49,50-hexamethyl-68, 69-dioxa-58-azatricyclohexatriaconta-21,23,25(49),26(50)-tetraene-51,52,53,54,55-pentone] | YES
8 | ≥ 100 nM | CNC(=O)CCCO[C@@H]1C[C@@H]2CC[C@@H](C)[C@@](O)(O2)C(=O)C(=O)N2CCCC[C@H]2C(=O)O[C@H]([C@H](C)C[C@@H]2CC[C@@H](OCCO)[C@H](OC)C2)CC(=O)[C@H](C)/C=C(\C)[C@@H](O)[C@@H](OC)C(=O)[C@H](C)C[C@H](C)/C=C/C=C/C=C/1C [I-59, 4-[[(22E,24E,26E,27E,34R,35S,36R,37R,39S,41S,43R,44S,45R,46R,56R)-45, 56-dihydroxy-44-[(1R)-2-[(1S,3R,4R)-4-(2-hydroxyethoxy)-3-methoxy-cyclohexyl]-1-methyl-ethyl]-46-methoxy-34, 35,36,37,47,48-hexamethyl-49,50,51,52,53-pentaoxo-68,69-dioxa-58-azatricyclohexatriaconta-22, 24,26(47),27(48)-tetraen-43-yl]oxy]-N-methyl-butanamide] | YES
9 | 0.1 to 1 nM | COCCOCCO[C@@H]1C[C@@H]2CC[C@@H](C)[C@@](O)(O2)C(=O)C(=O)N2CCCC[C@H]2C(=O)O[C@H]([C@H](C)C[C@@H]2CC[C@@H](OCCO)[C@H](OC)C2)CC(=O)[C@H](C)/C=C(\C)[C@@H](O)[C@@H](OC)C(=O)[C@H](C)C[C@H](C)/C=C/C=C/C=C/1C [I-104, (22E,24E,26E,27E,35R,36S,37R,38R,40S,42S,44R,45S,46R,47R,56R)-46, 56-dihydroxy-45-[(1R)-2-[(1S,3R, 4R)-4-(2-hydroxyethoxy)-3-methoxy-cyclohexyl]-1-methyl-ethyl]-47-methoxy-44-[2-(2-methoxyethoxy)ethoxy]-35,36,37,38,48,49-hexamethyl-66, 67-dioxa-57-azatricyclohexatriaconta-22,24,26(48),27(49)-tetraene-50,51,52,53,54-pentone] | YES
10 | 0.1 to 1 nM | CO[C@@H]1CC(C[C@@H](C)C2CC(=O)[C@H](C)/C=C(\C)[C@@H](O)[C@@H](OC)C(=O)[C@H](C)C[C@H](C)/C=C/C=C/C=C(\C)C(OCCCC(=O)N(C)C)C[C@@H]3CC[C@@H](C)[C@@](O)(O3)C(=O)C(=O)N3CCCC[C@H]3C(=O)O2)CC[C@H]1OCCO (stereo partly drawn) [I-69, 4-[[(23E, 25E,27E,28E,35R,36S,37R,38R,40S,42S,45S,46R,47R,57R)-46,57-dihydroxy-45-[(1R)-2-[(1S, 3R,4R)-4-(2-hydroxyethoxy)-3-methoxy-cyclohexyl]-1-methyl-ethyl]-47-methoxy-35, 36,37,38,48,49-hexamethyl-50,51,52,53,54-pentaoxo-69,70-dioxa-58-azatricyclohexatriaconta-23, 25,27(48),28(49)-tetraen-44-yl]oxy]-N,N-dimethyl-butanamide] | YES

From US11944605B2, “Rapamycin analogs and uses thereof” (Janssen Pharmaceutica NV, priority 2018, dated 2024)
